In EP0427484B1, “Novel benzoxazolone compounds and the use thereof as microbicides” (ROHM AND HAAS COMPANY, priority 1989, dated 1991):
Values after ≈ are worked out from the molar mass of the structure shown.

Tests used:
[1] = test system: Phytophthora capsici; conditions: 25 ppm
[2] = test system: Rhorotorularubra (R. rubra) - ATCC 2503; assay: MIC test, broth two-fold serial dilution; type: cell-based; conditions: complete inhibition of growth, read-out: MIC (ppm) for each compound
Experimental: (§1) Activity against certain bacteria and fungi was determined using a minimum inhibitory concentration (MIC) test, which establishes the minimum concentration of test compound required to achieve complete inhibition of growth of the test organism. An MIC value was obtained using a broth, two-fold serial dilution test performed as follows: […] A volume of the stock solution was dispensed into culture media to give an initial starting test concentration of 500 ppm compound. When the test was ready to be done, each vessel in the dilution series, except the first vessel, contained an equal volume of compound free broth. The first vessel contained twice the volume of broth with the starting concentration of test compound. One half of the broth from the first vessel was transferred to the second vessel. After being mixed, one half the resulting volume was removed from the second vessel and transferred to the third vessel. The entire cycle was repeated sufficiently to give a series of concentrations amounting to 500, 250, 125, 63, 31, 16, 8, and 4 ppm (or 25, 12.5, 6.2, 3.1, 1.6, 0.8, 0.4, 0.2), respectively. Each vessel was then inoculated with a cell suspension of the appropriate test organism. Bacteria were grown in broth and fungi on agar […] for a time and at a temperature appropriate to the species being tested. At the end of the growth period, the bacteria containing broth was vortexed to disperse the cells. In the case of fungi, the spores were harvested by pipetting water onto the slant and dislodging the spores with a sterile loop. The cell/spore suspension was standardized by controlling incubation time, temperature, and the volume of the diluent. The suspension was then used to inoculate the vessels containing the broth compound. The vessels were then incubated at the appropriate temperature. Alter the incubation, the vessels were examined for growth/no growth. The minimum inhibitory concentration (MIC) is defined as the lowest concentration of compound that results in complete inhibition of growth of the test organism. The organisms tested were bacteria Pseudomonas fluorescens (Ps.fl) - ATCC 948, Pseudomonas aeruginosa (Ps.ae) - ATCC 15442, Escherichia Coli (E.coli) - ATCC 11229, and Staphylococcus aureus (S.aur) - ATCC 6538; and fungi Aspergillus niger (A. niger) - ATCC 6275, Penicillium funiculosum (P. fun.) - ATCC 11797, Cladosporium resinae (A. res.) - ATCC 52833, Aureobasidium pullulans (A. pull.) - ATCC 9248, Cloeophyllum trabeuor (G. trab.) - ATCC 11539; and two yeasts Sacharomyces […].) - ATCC 560, and Rhorotorularubra (R. rubra) - ATCC 2503.

[3] = test system: Escherichia Coli (E.coli) - ATCC 11229; assay: MIC test, broth two-fold serial dilution; type: cell-based; conditions: ATCC11229, complete inhibition of growth, read-out: MIC (ppm) for each compound
Experimental: as §1

[4] = test system: Pseudomonas fluorescens (Ps.fl) - ATCC 948; assay: MIC test, broth two-fold serial dilution; type: cell-based; conditions: ATCC948, complete inhibition of growth, read-out: MIC (ppm) for each compound
Experimental: as §1

[5] = test system: Staphylococcus aureus (S.aur) - ATCC 6538; assay: MIC test, broth two-fold serial dilution; type: cell-based; conditions: ATCC6538, complete inhibition of growth, read-out: MIC (ppm) for each compound
Experimental: as §1

[6] = test system: Cladosporium resinae (A. res.) - ATCC 52833; assay: MIC test, broth two-fold serial dilution; type: cell-based; conditions: Amorphotheca resinae, ATCC52833; Cl.res.; complete inhibition of growth; read-out: MIC (ppm) for each compound
Experimental: as §1

[7] = test system: Penicillium funiculosum (P. fun.) - ATCC 11797; assay: MIC test, broth two-fold serial dilution; type: cell-based; conditions: Talaromyces funiculosus, ATCC11797, complete inhibition of growth, read-out: MIC (ppm) for each compound
Experimental: as §1

[8] = test system: Pseudomonas aeruginosa (Ps.ae) - ATCC 15442; assay: MIC test, broth two-fold serial dilution; type: cell-based; conditions: ATCC15442, complete inhibition of growth, read-out: MIC (ppm) for each compound
Experimental: as §1

[9] = test system: Cloeophyllum trabeuor (G. trab.) - ATCC 11539; assay: MIC test, broth two-fold serial dilution; type: cell-based; conditions: complete inhibition of growth, read-out: MIC (ppm) for each compound
Experimental: as §1

[10] = test system: Aspergillus niger (A. niger) - ATCC 6275; assay: MIC test, broth two-fold serial dilution; type: cell-based; conditions: ATCC6275, complete inhibition of growth, read-out: MIC (ppm) for each compound
Experimental: as §1

[11] = test system: Sacharomyces cereresae (S. cer.) - ATCC 560; assay: MIC test, broth two-fold serial dilution; type: cell-based; conditions: complete inhibition of growth, read-out: MIC (ppm) for each compound
Experimental: as §1

[12] = test system: Aureobasidium pullulans (A. pull.) - ATCC 9248; assay: MIC test, broth two-fold serial dilution; type: cell-based; conditions: ATCC9248, complete inhibition of growth, read-out: MIC (ppm) for each compound
Experimental: as §1

[13] = test system: Pythium ultimum; conditions: 25 ppm
[14] = test system: Botrytis cinerea; conditions: 25 ppm
[15] = test system: Piricularia oryzae; type: cell-based; conditions: in vitro, dose 25 ppm, relative to untreated check
[16] = test system: Rhizoctonia solani; conditions: 25 ppm
[17] = test system: Cochliobolus sativus; conditions: 25 ppm
[18] = test system: Xanthomonas campestris; type: cell-based; conditions: in vitro, dose 25 ppm, relative to untreated check
[19] = test system: Septoria nodorum; conditions: 25 ppm
[20] = test system: Fusarium roseum; type: cell-based; conditions: in vitro, dose 25 ppm, relative to untreated check
[21] = test system: Phytophthora infestans; type: in vivo; conditions: Pixie tomato plants, sprayed at 200 ppm before inoculation, four days after inoculation
[22] = test system: Pseudoperonospora cubensis; assay: In vivo plant disease control test, cucumber downy mildew (CDM)
[23] = test system: Erysiphe graminis (f. sp. tritici); assay: In vivo plant disease control test, wheat powdery mildew (WPM)
[24] = test system: Septoria nodorum; assay: In vivo plant disease control test, wheat glume blotch (WGB)
[25] = test system: Piricularia oryzae; type: in vivo; conditions: Nato rice plants, sprayed at 200 ppm before inoculation, seven to eight days after inoculation
[26] = test system: Puccinia recondita (f. sp. tritici Races PKB and PLD); assay: In vivo plant disease control test, wheat leaf rust (WLR); conditions: Fielder wheat, 200 ppm, scored after 10 days

| Compound | % DISEASE CONTROL PHY [1] [%] | MIC [2] [µg/mL] | MIC [3] [µg/mL] | MIC [4] [µg/mL] | MIC [5] [µg/mL] | MIC [6] [µg/mL] | MIC [7] [µg/mL] | MIC [8] [µg/mL] | MIC [9] [µg/mL] | MIC [10] [µg/mL] | MIC [11] [µg/mL] | MIC [12] [µg/mL] | % DISEASE CONTROL PRU [13] [%] | % DISEASE CONTROL BOC [14] [%] | % DISEASE CONTROL PIR [15] [%] | % DISEASE CONTROL RMI [16] [%] | % DISEASE CONTROL HEL [17] [%] | % DISEASE CONTROL XAN [18] [%] | % DISEASE CONTROL SEP [19] [%] | % DISEASE CONTROL FUS [20] [%] | further results |
| --- | --- | --- | --- | --- | --- | --- | --- | --- | --- | --- | --- | --- | --- | --- | --- | --- | --- | --- | --- | --- | --- |
| O=c1oc2cc(Cl)ccc2n1CC#CBr [Y=6-Cl, X=Br, 3-(3-bromopropargyl)-6-chloro-2-benzoxazolone] | 0 | > 25 | > 250 | > 250 | > 250 | > 25 | > 25 | > 250 | > 25 | 32 (≈ 112 µM) | > 25 | 32 (≈ 112 µM) | 50 | 50 | 0 | 0 | 50 | 0 | 0 | 0 | – |
| O=c1oc2ccccc2n1CC#CBr [Y=H, X=Br, 3-(3-bromopropargyl)-2-benzoxazolone] | – | > 25 | > 250 | > 250 | > 250 | > 25 | > 25 | > 250 | > 25 | > 25 | > 25 | > 25 | – | – | – | – | – | – | – | – | – |
| O=c1oc2ccccc2n1CC#CI [Y=H, X=I, 3-(3-iodopropargyl)-2-benzoxazolone] | 100 | ≤ 1 | > 250 | > 250 | > 250 | ≤ 5 | ≤ 1 | > 250 | ≤ 0.2 | < 0.13 | ≤ 1 | 0.25 (≈ 0.836 µM) | 100 | 100 | 100 | 95 | 100 | 0 | 100 | 100 | % DISEASE CONTROL TLB [21]: 0%; % DISEASE CONTROL CDM [22]: 50%; % DISEASE CONTROL WPM [23]: 90%; % DISEASE CONTROL WGB [24]: 0%; % DISEASE CONTROL RB [25]: 95%; % DISEASE CONTROL WLR [26]: 90% |
| O=c1oc2cc(Cl)ccc2n1CC#CI [Y=6-Cl, X=I, 3-(3-iodopropargyl)-6-chloro-2-benzoxazolone] | 100 | ≤ 1 | > 250 | 16 (≈ 48 µM) | 16 (≈ 48 µM) | ≤ 1 | ≤ 1 | > 250 | ≤ 1 | < 0.13 | ≤ 5 | ≤ 1 | 95 | 100 | 100 | 100 | 100 | 0 | 100 | 100 | – |
